Measurements: the NIST ThermoML archive (doi:10.1016/j.jct.2013.02.020)
± gives the expanded uncertainty stated by the source.

Key:
[1] = 298.15 K; for surface tension liquid-gas: Wilhelmy plate method; for mass density: 100 kPa, Liquid, Vibrating tube method
[2] = refractive index (Na D-line) (dimensionless); details: 298.15 K; 100 kPa; Liquid; Standard Abbe refractometry

surface tension liquid-gas [1] [mN/m] | mass density [1] [kg/m3] | refractive index [2] | SMILES
43.5 ± 0.2 | 1097.37 ± 2.2 | 1.5012 ± 0.0005 | CC(=O)[O-].CCn1cc[n+](C)c1 [1-ethyl-3-methylimidazolium acetate]
48.4 ± 0.2 | 1234.53 ± 2.2 | 1.4771 ± 0.0005 | CCOS(=O)(=O)[O-].CCn1cc[n+](C)c1 [1-ethyl-3-methylimidazolium ethyl sulfate]
51.2 ± 0.3 | 1242.52 ± 2.2 | 1.4962 ± 0.0005 | CCn1cc[n+](C)c1.CS(=O)(=O)[O-] [1-ethyl-3-methylimidazolium methanesulfonate]
31.7 ± 0.3 | 1058.44 ± 2.4 | 1.5271 ± 0.0006 | c1ccsc1 [thiophene]

SMILES | surface tension liquid-gas [1] [mN/m] | mass density [1] [kg/m3] | refractive index [2]
c1ccncc1 [pyridine] | 37.5 ± 0.4 | 978.25 ± 2.3 | 1.5072 ± 0.0006
